Results reported in patent US7598244B2, “[1,2,4]triazolo[1,5,a]pyrimidin-2-ylurea derivative and use thereof” (Nippon Kayaku Kabushiki Kaisha, priority 2003, dated 2009).

System: MHC class I molecules of T1 cells (human lymphoma cell line 174×CEM.)
Assay: Effect on expression of MHC class I from T1 cells (flow cytometry, MFI)
Type: cell-based
Conditions: 3 days culture
Procedure: Effect on Expression of MHC Class I from T1 Cells (Human Lymphoma Cell Line 174×CEM.)
Using a 96-well flat bottom microplate, T1 cells (5.7×10^3 cells/200 μl/well) were cultured in an RPMI 1640 medium (Iwaki Glass) containing 10% fetal bovine serum (hereinafter abbreviated as FBS; Iruvine Scientific) in an incubator containing 5% carbon dioxide at 37° C. for 3 days, in the presence of a test compound having each concentration obtained by dilution at a common ratio route of 10 from 400 μM. After completion of the culture, the cells were stained with fluoroisothiocyanate-labeled mouse anti-human MHC class I monoclonal antibody (an antibody produced from the cell line W6/32 (ATCC No. CRL 1991)). The mean fluorescence intensity of the stained cells (hereinafter referred to as MFI) was measured using flow cytometry FACScan (BD). The obtained value was defined as an expression level of MHC class I molecules. A test compound concentration necessary for suppressing 20% of the expression level of MHC class I molecules (EC20 value) was calculated using the following formula (1).
[formula] • Eexp: MFI of cultured cells containing test compound after being stained with antibody • Cexp: MFI of cultured cells containing no test compounds after being stained with antibody

Structure (SMILES): CC(C)COc1cccc(-c2ccnc3nc(NC(=O)NC(C)C)nn23)c1 [Example 172]
- EC20 (concentration necessary for suppressing 20% of the expression level of MHC class I molecules): 0.24 µM

Structure (SMILES): CNC(=O)C1CCCC(NC(=O)Nc2nc3nccc(-c4ccc(OC)cc4)n3n2)C1 (centres unmarked) [Example 174]
- EC20 (concentration necessary for suppressing 20% of the expression level of MHC class I molecules): 0.33 µM

Structure (SMILES): COc1ccc(-c2ccnc3nc(NC(=O)NC4CCCC(C(=O)N(C)C)C4)nn23)cc1 (centres unmarked) [Example 175]
- EC20 (concentration necessary for suppressing 20% of the expression level of MHC class I molecules): 0.3 µM

Structure (SMILES): COc1ccc([C@H](C)NC(=O)Nc2nc3nccc(-c4cccs4)n3n2)cc1 [Example 176]
- EC20 (concentration necessary for suppressing 20% of the expression level of MHC class I molecules): 0.2 µM

Structure (SMILES): CC(C)NC(=O)Nc1nc2nccc(-c3cccc(OCCc4ccccc4)c3)n2n1 [Example 180]
- EC20 (concentration necessary for suppressing 20% of the expression level of MHC class I molecules): 0.35 µM

Structure (SMILES): COc1cccc([C@H](C)NC(=O)Nc2nc3nccc(-c4cccs4)n3n2)c1 [Example 181]
- EC20 (concentration necessary for suppressing 20% of the expression level of MHC class I molecules): 0.43 µM

Structure (SMILES): C[C@H](NC(=O)Nc1nc2nccc(-c3cccs3)n2n1)c1ccc(O)cc1 [Example 182]
- EC20 (concentration necessary for suppressing 20% of the expression level of MHC class I molecules): 0.28 µM

Structure (SMILES): CC(C)NC(=O)Nc1nc2nccc(-c3cccc(OCc4ccccn4)c3)n2n1 [Example 185]
- EC20 (concentration necessary for suppressing 20% of the expression level of MHC class I molecules): 0.35 µM

Structure (SMILES): COc1ccc([C@H](C)NC(=O)Nc2nc3nccc(-c4cccc(OC)c4)n3n2)cc1 [Example 186]
- EC20 (concentration necessary for suppressing 20% of the expression level of MHC class I molecules): 0.44 µM

Structure (SMILES): COc1cccc(-c2ccnc3nc(NC(=O)N[C@@H](C)CCCC(C)C)nn23)c1 [Example 188]
- EC20 (concentration necessary for suppressing 20% of the expression level of MHC class I molecules): 0.08 µM

Structure (SMILES): CC(C)NC(=O)Nc1nc2nccc(-c3cccc(OCCN4CCOCC4)c3)n2n1 [Example 189]
- EC20 (concentration necessary for suppressing 20% of the expression level of MHC class I molecules): 0.59 µM

Structure (SMILES): CC(C)NC(=O)Nc1nc2nccc(-c3cccc(OCCCN(C)C)c3)n2n1 [Example 192]
- EC20 (concentration necessary for suppressing 20% of the expression level of MHC class I molecules): 0.9 µM

Structure (SMILES): CC(C)NC(=O)Nc1nc2nccc(-c3cccc(OCc4ccncc4)c3)n2n1 [Example 193]
- EC20 (concentration necessary for suppressing 20% of the expression level of MHC class I molecules): 0.31 µM

Structure (SMILES): CC(C)NC(=O)Nc1nc2nccc(-c3cccc(OCCCc4ccccc4)c3)n2n1 [Example 194]
- EC20 (concentration necessary for suppressing 20% of the expression level of MHC class I molecules): 0.42 µM

Structure (SMILES): COc1cccc([C@H](C)NC(=O)Nc2nc3nccc(-c4cccc(OCc5ccccc5)c4)n3n2)c1 [Example 199]
- EC20 (concentration necessary for suppressing 20% of the expression level of MHC class I molecules): 0.28 µM

Structure (SMILES): COc1cccc([C@H](C)NC(=O)Nc2nc3nccc(-c4cccc(O)c4)n3n2)c1 [Example 200]
- EC20 (concentration necessary for suppressing 20% of the expression level of MHC class I molecules): 0.07 µM

Structure (SMILES): COc1cccc([C@H](C)NC(=O)Nc2nc3nccc(-c4cccc(OCc5ccccn5)c4)n3n2)c1 [Example 201]
- EC20 (concentration necessary for suppressing 20% of the expression level of MHC class I molecules): 0.16 µM

Structure (SMILES): COc1cccc([C@H](C)NC(=O)Nc2nc3nccc(-c4cccc(OCc5cccnc5)c4)n3n2)c1 [Example 202]
- EC20 (concentration necessary for suppressing 20% of the expression level of MHC class I molecules): 0.06 µM

Structure (SMILES): COc1cccc([C@H](C)NC(=O)Nc2nc3nccc(-c4cccc(OCc5ccncc5)c4)n3n2)c1 [Example 203]
- EC20 (concentration necessary for suppressing 20% of the expression level of MHC class I molecules): 0.19 µM

Structure (SMILES): COc1cccc([C@H](C)NC(=O)Nc2nc3nccc(-c4cccc(OCCN5CCOCC5)c4)n3n2)c1.Cl [Example 204]
- EC20 (concentration necessary for suppressing 20% of the expression level of MHC class I molecules): 0.07 µM

Structure (SMILES): COc1cccc([C@H](C)NC(=O)Nc2nc3nccc(-c4cccc(OCCN(C)C)c4)n3n2)c1 [Example 205]
- EC20 (concentration necessary for suppressing 20% of the expression level of MHC class I molecules): 0.19 µM

Structure (SMILES): COc1cccc([C@H](C)NC(=O)Nc2nc3nccc(-c4cccc(OCCC5OCCCO5)c4)n3n2)c1 [Example 207]
- EC20 (concentration necessary for suppressing 20% of the expression level of MHC class I molecules): 0.06 µM

Structure (SMILES): COc1cccc([C@H](C)NC(=O)Nc2nc3nccc(-c4cccc(OCCc5ccccn5)c4)n3n2)c1 [Example 208]
- EC20 (concentration necessary for suppressing 20% of the expression level of MHC class I molecules): 0.18 µM

Structure (SMILES): COc1cccc([C@H](C)NC(=O)Nc2nc3nccc(-c4cccc(OCCc5ccncc5)c4)n3n2)c1 [Example 209]
- EC20 (concentration necessary for suppressing 20% of the expression level of MHC class I molecules): 0.04 µM

Structure (SMILES): COc1cccc([C@H](C)NC(=O)Nc2nc3nccc(-c4cccc(OCCCc5cccnc5)c4)n3n2)c1 [Example 210]
- EC20 (concentration necessary for suppressing 20% of the expression level of MHC class I molecules): 0.13 µM

Structure (SMILES): COc1cccc([C@H](C)NC(=O)Nc2nc3nccc(-c4cccc(OCCCc5ccncc5)c4)n3n2)c1 [Example 211]
- EC20 (concentration necessary for suppressing 20% of the expression level of MHC class I molecules): 0.06 µM

Structure (SMILES): COCOc1cccc(-c2ccnc3nc(NC(=O)N[C@@H](C)c4cccc(OC)c4)nn23)c1 [Example 212]
- EC20 (concentration necessary for suppressing 20% of the expression level of MHC class I molecules): 0.18 µM

Structure (SMILES): COCCOCOc1cccc(-c2ccnc3nc(NC(=O)N[C@@H](C)c4cccc(OC)c4)nn23)c1 [Example 213]
- EC20 (concentration necessary for suppressing 20% of the expression level of MHC class I molecules): 0.15 µM

Structure (SMILES): COc1ccc(-c2ccnc3nc(NC(=O)NCc4ccccc4OC)nn23)cc1 [Example 214]
- EC20 (concentration necessary for suppressing 20% of the expression level of MHC class I molecules): 0.42 µM

Structure (SMILES): COc1ccc(-c2ccnc3nc(NC(=O)NCc4ccc5c(c4)OCO5)nn23)cc1 [Example 215]
- EC20 (concentration necessary for suppressing 20% of the expression level of MHC class I molecules): 0.15 µM

Structure (SMILES): COc1ccc(-c2ccnc3nc(NC(=O)N[C@@H](C)C(C)C)nn23)cc1 [Example 216]
- EC20 (concentration necessary for suppressing 20% of the expression level of MHC class I molecules): 0.16 µM

Structure (SMILES): COc1ccc(-c2ccnc3nc(NC(=O)N[C@@H](C)C(C)(C)C)nn23)cc1 [Example 217]
- EC20 (concentration necessary for suppressing 20% of the expression level of MHC class I molecules): 0.32 µM

Structure (SMILES): COc1ccc(-c2ccnc3nc(NC(=O)N[C@@H](C)C4CCCCC4)nn23)cc1 [Example 218]
- EC20 (concentration necessary for suppressing 20% of the expression level of MHC class I molecules): 0.18 µM

Structure (SMILES): COc1ccc(-c2ccnc3nc(NC(=O)N[C@@H](C)C(C)=O)nn23)cc1 [Example 220]
- EC20 (concentration necessary for suppressing 20% of the expression level of MHC class I molecules): 0.72 µM

Structure (SMILES): COc1cccc([C@H](C)NC(=O)Nc2nc3nccc(-c4cccc(OCCCN(C)C)c4)n3n2)c1 [Example 221]
- EC20 (concentration necessary for suppressing 20% of the expression level of MHC class I molecules): 0.12 µM

Structure (SMILES): COc1cccc([C@H](C)NC(=O)Nc2nc3nccc(-c4ccc(OCc5ccccc5)cc4)n3n2)c1 [Example 222, (S)-1-[7-(4-benzyloxyphenyl)-[1,2,4]triazolo[1,5-a]pyrimidin-2-yl]-3-[1-(3-methoxyphenyl)ethyl]urea]
- EC20 (concentration necessary for suppressing 20% of the expression level of MHC class I molecules): 0.1 µM

Structure (SMILES): COc1cccc([C@H](C)NC(=O)Nc2nc3nccc(-c4ccc(O)cc4)n3n2)c1 [Example 223, (S)-1-[7-(4-hydroxyphenyl)-[1,2,4]triazolo[1,5-a]pyrimidin-2-yl]-3-[1-(3-methoxyphenyl)ethyl]urea]
- EC20 (concentration necessary for suppressing 20% of the expression level of MHC class I molecules): 0.014 µM

Structure (SMILES): COc1cccc([C@H](C)NC(=O)Nc2nc3nccc(-c4ccc(OCC5CCCO5)cc4)n3n2)c1 (some centres unmarked) [Example 224]
- EC20 (concentration necessary for suppressing 20% of the expression level of MHC class I molecules): 0.09 µM

Structure (SMILES): COc1cccc([C@H](C)NC(=O)Nc2nc3nccc(-c4ccc(OCCC5OCCCO5)cc4)n3n2)c1 [Example 225]
- EC20 (concentration necessary for suppressing 20% of the expression level of MHC class I molecules): 0.05 µM

Structure (SMILES): COCOc1ccc(-c2ccnc3nc(NC(=O)N[C@@H](C)c4cccc(OC)c4)nn23)cc1 [Example 226]
- EC20 (concentration necessary for suppressing 20% of the expression level of MHC class I molecules): 0.05 µM

Structure (SMILES): COCCOCOc1ccc(-c2ccnc3nc(NC(=O)N[C@@H](C)c4cccc(OC)c4)nn23)cc1 [Example 227]
- EC20 (concentration necessary for suppressing 20% of the expression level of MHC class I molecules): 0.07 µM

Structure (SMILES): COc1cccc([C@H](C)NC(=O)Nc2nc3nccc(-c4ccc(OCC(=O)O)cc4)n3n2)c1 [Example 229]
- EC20 (concentration necessary for suppressing 20% of the expression level of MHC class I molecules): 0.69 µM

Structure (SMILES): COc1cccc([C@H](C)NC(=O)Nc2nc3nccc(-c4ccc(N(C)C)cc4)n3n2)c1 [Example 232]
- EC20 (concentration necessary for suppressing 20% of the expression level of MHC class I molecules): 0.04 µM

Structure (SMILES): COCCCC[C@H](C)NC(=O)Nc1nc2nccc(-c3ccc(OC)cc3)n2n1 [Example 233]
- EC20 (concentration necessary for suppressing 20% of the expression level of MHC class I molecules): 0.04 µM

Structure (SMILES): CC[C@H](C)NC(=O)Nc1nc2nccc(-c3ccc(OC)cc3)n2n1 [Example 234]
- EC20 (concentration necessary for suppressing 20% of the expression level of MHC class I molecules): 0.22 µM

Structure (SMILES): COC[C@H](C)NC(=O)Nc1nc2nccc(-c3ccc(OC)cc3)n2n1 [Example 237]
- EC20 (concentration necessary for suppressing 20% of the expression level of MHC class I molecules): 0.25 µM

Structure (SMILES): COCCOCCOCCOc1ccc(-c2ccnc3nc(NC(=O)N[C@@H](C)c4cccc(OC)c4)nn23)cc1 [Example 238]
- EC20 (concentration necessary for suppressing 20% of the expression level of MHC class I molecules): 0.015 µM

Structure (SMILES): COCCOCCOCCOc1cccc(-c2ccnc3nc(NC(=O)N[C@@H](C)c4cccc(OC)c4)nn23)c1 [Example 239]
- EC20 (concentration necessary for suppressing 20% of the expression level of MHC class I molecules): 0.11 µM

Structure (SMILES): COCCOc1ccc(-c2ccnc3nc(NC(=O)N[C@@H](C)c4cccc(OC)c4)nn23)cc1 [Example 244, (S)-1-{7-[4-(2-methoxyethoxy)phenyl]-[1,2,4]triazolo[1,5-a]pyrimidin-2-yl}-3-[1-(3-methoxyphenyl)ethyl]urea]
- EC20 (concentration necessary for suppressing 20% of the expression level of MHC class I molecules): 0.019 µM

Structure (SMILES): CC(C)CCC[C@H](C)NC(=O)Nc1nc2nccc(-c3ccc(OCc4ccccc4)cc3)n2n1 [Example 245, (S)-1-[7-(4-benzyloxyphenyl)-[1,2,4]triazolo[1,5-a]pyrimidin-2-yl]-3-(1,5-dmethylhexyl)urea]
- EC20 (concentration necessary for suppressing 20% of the expression level of MHC class I molecules): 0.18 µM
